System: diarrhea-predominant IBS subjects
Assay type: in vivo, human
Settings: TEAE incidence, 2 mg, Safety Population
Method: The study was performed in approximately 150 study centers. Approximately 1600 eligible subjects were to be given cilansetron 2 mg TID. At Visit 1, pre-treatment assessments were conducted. […] Subjects were to return to the study site one month later for Visit 3 (Day 31) for their first interim assessment. […] All subjects who discontinued from the study were to have the same post-study assessments required at Visit 7 performed at their early termination visit. […]
Stool specimens were analyzed at every visit for occult blood. An independent GERB had been established to provide advice on GI AEs during the course of the study.
Adverse events were assessed at Baseline, at each clinic visit, and at the end of the study (Month 12 or the early termination visit). All AEs, which occurred during the study were followed up in accordance with good medical practice until resolved or judged no longer clinically significant, or if a condition was chronic, until fully characterized. Adverse events could occur in the specified follow-up period and, regardless of the interval since the last administration of the study medication, were treated in the same manner as an AE which occurred during the treatment with study medication. Each AE was evaluated for duration, severity, seriousness, and causal relationship to the investigational drug. The action taken and the outcome were also recorded.
Specifically, subjects who were lost to follow-up and had no post-Baseline contact with the site were excluded from the Safety population. The subjects who discontinued from the study due to lost to follow-up were identified based on the information collected on the study termination CRF page.
After the pretreatment assessment at Visit 1 (Days […] to −3), subjects were to return to the study site for a Baseline assessment and start the treatment at Visit 2 (Day 1).
For the by time-interval analyses of disposition, prevalence of AEs, and of markedly abnormal and predefined changes in laboratory values, vital signs, and ECGs, the following interval windows were used:
Adverse events that were already present prior to the first dose of cilansetron study medication but increased in severity afterwards were considered as treatment-emergent.
The 5% cutoff point was based on the incidence within higher level terms.
Subjects were counted at most once for each primary system organ class and preferred term. Serious AEs that resolved prior to receiving study medication or occurred more than 30 days after the last dose of study medication were not included in the incidence tables. A listing of all SAEs is presented; SAEs with onset prior to receiving study medication or more than 30 days after discontinuation of study medication were flagged. The listing presents lower level term and preferred term of the SAE, severity, action taken, outcome, and relationship of the SAE, start and stop date of the SAE, study day of onset of the SAE, age, race, and sex.

Cc1nccn1C[C@H]1CCc2c(c3cccc4c3n2CCC4)C1=O [cilansetron, (R)-(−)-4,5,6,8,9,10-hexahydro-10-[(2-methyl-1H-imidazol-1-yl)methyl]-11H-pyrido-[3,2,1-jk]-carbazol-11-one]
Neurosis NOS (PT): 5 (<1%) n (%) | Nightmare (PT): 2 (<1%) n (%) | Nocturia (PT): 1 (<1%) n (%) | Oedema Peripheral (PT): 1 (<1%) n (%) | Oligomenorrhoea NOS* (PT): 2 (<1%) n (%) | Onychoschizia (PT): 1 (<1%) n (%) | Osteoarthritis Aggravated (PT): 1 (<1%) n (%) | Osteochondrosis (PT): 1 (<1%) n (%) | Osteoporosis NOS (PT): 4 (<1%) n (%) | Ovarian Cyst* (PT): 2 (<1%) n (%) | Overweight (PT): 1 (<1%) n (%) | Pain NOS (PT): 5 (<1%) n (%) | Pain in Limb (PT): 11 (<1%) n (%) | Palpitations (PT): 5 (<1%) n (%) | Panic Disorder NOS (PT): 4 (<1%) n (%) | Peripheral Swelling (PT): 3 (<1%) n (%) | Pharyngitis (PT): 27 (2%) n (%) | Pharyngolaryngeal Pain (PT): 2 (<1%) n (%) | Photodermatosis (PT): 1 (<1%) n (%) | Polyarthritis (PT): 1 (<1%) n (%) | Polymenorrhoea* (PT): 1 (<1%) n (%) | Polymyalgia (PT): 1 (<1%) n (%) | Polyuria (PT): 2 (<1%) n (%) | Post Procedural Haemorrhage (PT): 1 (<1%) n (%) | Post Procedural Pain (PT): 4 (<1%) n (%) | Postmenopausal Haemorrhage* (PT): 1 (<1%) n (%) | Postmenopausal Symptoms* (PT): 1 (<1%) n (%) | Productive Cough (PT): 1 (<1%) n (%) | Prostatic Pain* (PT): 1 (<1%) n (%) | Prostatitis* (PT): 3 (<1%) n (%) | Proteinuria (PT): 2 (<1%) n (%) | Pruritus Generalised (PT): 2 (<1%) n (%) | Pruritus NOS (PT): 11 (<1%) n (%) | Psoriasis (PT): 5 (<1%) n (%) | Pyoderma (PT): 1 (<1%) n (%) | Pyrexia (PT): 20 (1%) n (%) | Radius Fracture (PT): 2 (<1%) n (%) | Rash Generalised (PT): 3 (<1%) n (%) | Rash NOS (PT): 10 (<1%) n (%) | Rash Papular (PT): 1 (<1%) n (%) | Rash Pruritic (PT): 1 (<1%) n (%) | Renal Colic (PT): 4 (<1%) n (%) | Renal Cyst NOS (PT): 1 (<1%) n (%) | Respiratory Disorder NOS (PT): 1 (<1%) n (%) | Restlessness (PT): 1 (<1%) n (%) | Rheumatoid Arthritis (PT): 1 (<1%) n (%) | Rheumatoid Arthritis Aggravated (PT): 1 (<1%) n (%) | Rhinitis Allergic NOS (PT): 4 (<1%) n (%) | Rhinitis NOS (PT): 4 (<1%) n (%) | Rhinorrhoea (PT): 2 (<1%) n (%) | Rib Fracture (PT): 2 (<1%) n (%) | Road Traffic Accident (PT): 1 (<1%) n (%) | Rosacea (PT): 1 (<1%) n (%) | Scar (PT): 1 (<1%) n (%) | Scleroderma (PT): 1 (<1%) n (%) | Seborrhoea (PT): 1 (<1%) n (%) | Sensation of Foreign Body NOS (PT): 1 (<1%) n (%) | Sinus Arrhythmia (PT): 2 (<1%) n (%) | Sinus Bradycardia (PT): 3 (<1%) n (%) | Sinus Congestion (PT): 1 (<1%) n (%) | Sinus Tachycardia (PT): 9 (<1%) n (%) | Skin Disorder NOS (PT): 1 (<1%) n (%) | Skin Eruption (PT): 1 (<1%) n (%) | Skin Inflammation NOS (PT): 1 (<1%) n (%) | Skin Necrosis (PT): 1 (<1%) n (%) | Skin Odour Abnormal (PT): 1 (<1%) n (%) | Skin Ulcer (PT): 1 (<1%) n (%) | Sleep Disorder NOS (PT): 2 (<1%) n (%) | Sneezing (PT): 2 (<1%) n (%) | Snoring (PT): 1 (<1%) n (%) | Soft Tissue Injury NOS (PT): 1 (<1%) n (%) | Solar Keratosis (PT): 1 (<1%) n (%) | Spinal Osteoarthritis (PT): 1 (<1%) n (%) | Spondylosis (PT): 2 (<1%) n (%) | Sputum Discoloured (PT): 1 (<1%) n (%) | Stress Incontinence (PT): 2 (<1%) n (%) | Stress Symptoms (PT): 8 (<1%) n (%) | Supraventricular Extrasystoles (PT): 1 (<1%) n (%) | Sweating Increased (PT): 7 (<1%) n (%) | Tachycardia NOS (PT): 3 (<1%) n (%) | Tachycardia Paroxysmal NOS (PT): 1 (<1%) n (%) | Tendon Injury (PT): 1 (<1%) n (%) | Tendonitis (PT): 3 (<1%) n (%) | Thermal Burn (PT): 1 (<1%) n (%) | Thirst (PT): 1 (<1%) n (%) | Toe Deformities NOS (PT): 1 (<1%) n (%) | Tonsillar Hypertrophy (PT): 1 (<1%) n (%) | Traumatic Chest Injury NOS (PT): 1 (<1%) n (%) | Upper Respiratory Tract Inflammation (PT): 1 (<1%) n (%) | Urethral Stricture (PT): 1 (<1%) n (%) | Urinary Frequency (PT): 5 (<1%) n (%) | Urinary Incontinence (PT): 4 (<1%) n (%) | Urinary Incontinence Aggravated (PT): 1 (<1%) n (%) | Urine Odour Abnormal (PT): 1 (<1%) n (%) | Urticaria NOS (PT): 4 (<1%) n (%) | Uterine Cervical Erosion* (PT): 1 (<1%) n (%) | Uterine Prolapse* (PT): 1 (<1%) n (%) | Vaginal Prolapse* (PT): 1 (<1%) n (%) | Ventricular Extrasystoles (PT): 3 (<1%) n (%) | Ventricular Hypertrophy (PT): 1 (<1%) n (%) | Vitamin B12 Deficiency (PT): 2 (<1%) n (%) | Weakness (PT): 14 (<1%) n (%) | Weight Fluctuation (PT): 1 (<1%) n (%) | Wheezing (PT): 1 (<1%) n (%) | Wrist Fracture (PT): 2 (<1%) n (%) | Cardiac Disorders (SOC): 46 (3%) n (%) | General Disorders and Administration Site Conditions (SOC): 85 (6%) n (%) | Injury, Poisoning and Procedural Complications (SOC): 59 (4%) n (%) | Metabolism and Nutrition Disorders (SOC): 54 (4%) n (%) | Psychiatric Disorders (SOC): 74 (5%) n (%) | Renal and Urinary Disorders (SOC): 40 (3%) n (%) | Reproductive System and Breast Disorders (SOC): 38 (3%) n (%) | Respiratory, Thoracic and Mediastinal Disorders (SOC): 91 (6%) n (%) | Skin and Subcutaneous Tissue Disorders (SOC): 70 (5%) n (%)

From US20070093520A1, “Method of treatment of diarrhea-predominant irritable bowel syndrome in a subject” (priority 2005, published 2007)
